From patent US4322370A, “Polycyclic compounds” (Beecham Group Limited, priority 1975, dated 1982)

What was measured:
[1] = Reduction in food intake in hungry rats after oral administration (anorexic activity); format: in vivo; settings: 10 mg/kg
Procedure: The useful anorexic activity of 4-(4-chlorophenyl)-2, 2-dimethyl-7-(2-dimethylaminoethoxy)-1-methylidene tetralin and 4-(4-chlorophenyl-1,2,2,-trimethyl-7-(2-dimethylaminoethoxy) tetralin were determined by the oral administration to hungry rats of the compound and measuring the reduction in their food intake. The results are as follows: […]

[2] = Oral toxicity in mice (deaths, LD50); settings: for Min Dose (mg/kg) at which deaths occurred: mice; for LD50: mouse, in vivo, po
[3] = system: reserpine-induced hypothermia; assay: Reserpine Prevention test (prevention of reserpine-induced hypothermia in mice); format: in vivo; settings: Mus musculus, read-out: Approximate Dose required mg/kg (dose at which compounds are active on the Reserpine Prevention Test in Mice)
Source text: The results given in Table 1 were obtained for compounds of the formula (XIII): [drawing 22]

[4] = in vivo; settings: mouse, po

SMILES	reduction in food intake [1]	Min Dose (mg/kg) at which deaths occurred [2]	LD50 [2]	minimal effective dose [3]	LD50 [4]
C=C1c2cc(OCCN(C)C)ccc2C(c2ccc(Cl)cc2)CC1(C)C (centres unmarked) [4-(4-Chlorophenyl)-2,2-dimethyl-7-(2-dimethylaminoethoxy)-1-methylidene tetralin]	51%				
CC1c2cc(OCCN(C)C)ccc2C(c2ccc(Cl)cc2)CC1(C)C (centres unmarked) [CH2 CH3 CHCH3 Cl H, 4-(4-Chlorophenyl)-1,2,2-trimethyl-7-(2-dimethylaminoethoxy)tetralin]	35%	> 100 mg/kg	> 100 mg/kg	3 mg/kg	
CN(C)CCOc1ccc2c(c1)C(Cl)C(C)(C)CC2c1ccc(Cl)cc1 (centres unmarked) [CH2 CH3 CHCl Cl H, 1-Chloro-4-(4-chlorophenyl)-2,2-dimethyl-7-(2-dimethylaminoethoxy)tetralin]		30 mg/kg	33 mg/kg	0.1 mg/kg	
CN(C)CCOc1ccc2c(c1)C(O)C(C)(C)CC2c1ccc(Cl)cc1 (centres unmarked) [CH2 CH3 CHOH Cl H, 4-(4-Chlorophenyl)-1-hydroxy-2,2-dimethyl-7-(2-dimethylaminoethoxy)tetralin]		3 mg/kg		0.1 mg/kg	11 mg/kg
CN(C)CCOc1ccc2c(c1)C(=O)C(C)(C)CC2c1ccc(Cl)c(Cl)c1 (centres unmarked) [CH2 CH3 CO Cl Cl, 4-(3,4-Dichlorophenyl)-2,2-dimethyl-7-(2-dimethylaminoethoxy)-1-tetralone]		10 mg/kg	10 to 30 mg/kg	1 mg/kg	
CN(C)CCOc1ccc2c(c1)C(=O)C(C)(C)CC2c1ccc(Cl)cc1 (centres unmarked) [CH2 CH3 CO Cl H, 4-(4-Chlorophenyl)-2,2-dimethyl-7-(2-dimethylaminoethoxy)-1-tetralone]		10 mg/kg	55 mg/kg	0.03 mg/kg	
CN(C)CCOc1ccc2c(c1)C(=O)C(C)(C)CC2c1cccc(C(F)(F)F)c1 (centres unmarked) [CH2 CH3 CO H CF3, 4-(3-Trifluoromethylphenyl)-2,2-dimethyl-7-(2-dimethylaminoethoxy)-1-tetralone]		> 100 mg/kg	> 100 mg/kg	3 mg/kg	
CNCC(O)COc1ccc2c(c1)C(=O)C(C)(C)CC2c1ccc(Cl)c(Cl)c1 (centres unmarked) [H CO Cl Cl, 4-(3,4-Dichlorophenyl)-7-(2-hydroxy-3-methylaminopropoxy)-2,2-dimethyl-1-tetralone]		> 100 mg/kg	100 mg/kg	1 mg/kg	
